Results reported in patent US20230114264A1, “ACTIVATION OF LYTIC GENES IN CANCER CELLS” (priority 2020, published 2023).

Key:
C666-1 cells = experiment: Growth proliferation, viability, apoptosis, cell cycle and clonogenic assays in C666-1 cells; type: cell-based
Protocol: (§1) Growth proliferation assay. SNU-719 HA-dCas9-Tet-on-PUFa-p65HSF1-BZLF1 gRNA (3) or C666-1 HA-dCas9-Tet-on-PUFa-p65HSF1-BZLF1 gRNA (A5) cells were seeded into individual wells of a 96-well plate for at 1×10^5 cells per well the day before being treated with 1 μg/mL DOX and Ganciclovir (GCV). Cells were counted with the cell counting kit-8 (CCK-8, Sigma) at day 6, day 7, and day 8 (FIGS. 8H-8I).
(§2) Active caspase-3 analysis. To detect the apoptosis in DOX treated dCas9-Tet on-p65HSF1-BZLF1sgRNA3 SNU719 and C17 cells, active caspase-3 apoptosis kit (BD Pharmingen #550914) was used. Untreated and treated cells were trypsinized and then fixed with fixation buffer in ice for 20 mins and washed with washing buffer twice. Cells were then stained with the PE conjugated rabbit anti active caspase-3 antibody in dark for 30 mins. Stained cells were collected with BD LSRFortessa.
(§3) Cell cycle analysis. After 96 hours from induction of DOX, dCas9-Tet on-p65HSF1-BZLF1sgRNA3 SNU719 and C17 cells were trypsinized and then fixed with 75% cold ethanol for 2 hrs at −20° C. Cells were washed three times with cold PBS and then resuspended in PBS containing 100 μg/mL RNase A and 10 μg/mL propidium iodide for 10 min at room temperature. Stained cells were collected with BD LSRFortessa.
(§4) Clonogenic assays. Cells were seeded at a density of 500 cells/well in 6-well plates the day before treatment. Then cells were stained with 0.5% crystal violet 14 days after treatment, and at least 50 cells were considered as a single colony

C17 cells = experiment: Growth proliferation, viability, apoptosis, cell cycle and clonogenic assays in C17 cells; type: cell-based
Protocol: as §1, §2, §3, §4

BZLF1 = experiment: EBV reactivation by BZLF1 gRNA transfection (Casilio) in C666-1 cells stably expressing HA-dCas9-EGFP and 3×FLAG-PUFa-p65HSF1; type: cell-based, Epstein-Barr virus (EBV)
Protocol: SNU-719 and C666-1 cells stably expressing HA-dCas9-EGFP and 3×FLAG-PUFa-p65HSF1 were cultivated in RPMI-1640 (Sigma) with 10% fetal bovine serum (FBS) (Gibco) and 1% GlutaMAX (Gibco) and cultured in 37° C. incubator with 5% CO2. EBV reactivation experiments were conducted with cells seeded into 6-well plates at 2×10^6 cells per well the day before transfection. 2 micrograms (μg) of control gRNA or individual BZLF1 gRNA (A3) (SEQ ID NO: 8), gRNA (A4) (SEQ ID NO: 9), gRNA (A5) (SEQ ID NO: 10), or gRNA (A6) (SEQ ID NO: 11) gRNAs were transfected into cells with Lipofectamine 2000 (Invitrogen). After transfection, cells were grown for 48 hours and harvested for protein extraction or FACS (FIGS. 4, 5, 7A-7E).
FACS Analysis. Cells were harvested with trypsin and fixed for 15 minutes (mins) with 4% paraformaldehyde. The cells were then centrifuged at 2000×g for 5 mins and resuspended in 3% BSA for 30 mins. The resuspend cells were centrifuged again at 2000×g for 5 mins. Samples were stained with Alexa-647 conjugated anti-BZLF1 monoclonal antibody for 2 hours. Samples were analyzed on a FACSCalibur flow cytometer using CellQuest Pro software (BD Bioscience). Thousands of events were collected in each run.
Quantitative RT-PCR Analysis. Cells were harvested with trypsin, centrifuged at top speed for 1 min, and RNA was extracted using TRIzol reagent (Invitrogen). 2 μg of total RNA was used to produce a cDNA library using Superscript III Reverse Transcriptase. SYBR Green gene expression assays (Roche) were performed using the GAPDH primers as endogenous control and primers targeting the EBV lytic genes BZLF1, BGLF4, BLRF2 were used to assess EBV reactivation. Power SYBR Green master mix was used for performing real-time quantitative PCR (RT-qPCR). Each reaction was performed with 2 μL of 1:3 diluted cDNA. The RT-qPCR samples were analyzed with a Roche LC480 PCR instrument. Gene expression levels were calculated by “delta Ct” algorithm and normalized to control samples.

With “BZLF1 gRNA (A5): BZLF1 gRNA spacer sequence SEQ ID NO: 10, GAAACTATGCATGAGCCAC (chemistry not given here)” the “cell cycle by flow cytometry” value (C666-1 cells; DOX induced, FIG. 17B) was “sub G1 phase accumulation and S phase decrease”, the “cell proliferation, apoptosis and growth of cells in vitro” value (C666-1 cells; DOX-induced EBV reactivation) was “suppressed the cell proliferation, induced apoptosis, and slowed the growth of cells” and the “slowing of growth rate of cells compared with cells treated with ganciclovir (GCV) alone” value (C666-1 cells; EBV reactivation, FIGS. 3B, 6A, 8H) was “greater than 4 fold”. For the same substance, the “decrease of C666-1 cell viability relative to control” value (C666-1 cells; FIG. 6B, 120 hours following treatment) was 50-70%, the monolayer colony formation (C666-1 cells; after DOX induction, FIG. 17E) was “dramatic suppression” and the “cell cycle by flow cytometry” value (C17 cells; DOX induced, FIG. 17B) was “sub G1 phase accumulation and S phase decrease”. The “cell proliferation, apoptosis and growth of cells in vitro” value (C17 cells; DOX-induced EBV reactivation) was “suppressed the cell proliferation, induced apoptosis, and slowed the growth of cells”, the monolayer colony formation (C17 cells; after DOX induction, FIG. 17E) was “dramatic suppression” and the “EBV reactivation, induction of BZLF1 (Zta) protein expression” value (BZLF1; C666-1, 2 μg gRNA, 48 hours after transfection, protein extraction or FACS) was “reactivate EBV expression at detectable levels”. The “BZLF1 (ZTa) protein expression by immunostaining” value (BZLF1; C666-1, FIG. 7D) was “activated BZLF1 (ZTa) protein expression” and the “expression of the downstream EBV genes BGLF4 and BLRF2” value (BZLF1; RT-qPCR, FIG. 7F, cell line not stated) was “induces the expression of the downstream EBV genes BGLF4 and BLRF2”.
